Article PMC2902275 (Cancer prevention research (Philadelphia, Pa.), 2009)

Biological target: HDAC3 (Homo sapiens, UniProt O15379)
Assay: preliminary enzyme kinetics of HDAC3 inhibition
Format: biochemical

Sequence of HDAC3 (O15379 whole entry): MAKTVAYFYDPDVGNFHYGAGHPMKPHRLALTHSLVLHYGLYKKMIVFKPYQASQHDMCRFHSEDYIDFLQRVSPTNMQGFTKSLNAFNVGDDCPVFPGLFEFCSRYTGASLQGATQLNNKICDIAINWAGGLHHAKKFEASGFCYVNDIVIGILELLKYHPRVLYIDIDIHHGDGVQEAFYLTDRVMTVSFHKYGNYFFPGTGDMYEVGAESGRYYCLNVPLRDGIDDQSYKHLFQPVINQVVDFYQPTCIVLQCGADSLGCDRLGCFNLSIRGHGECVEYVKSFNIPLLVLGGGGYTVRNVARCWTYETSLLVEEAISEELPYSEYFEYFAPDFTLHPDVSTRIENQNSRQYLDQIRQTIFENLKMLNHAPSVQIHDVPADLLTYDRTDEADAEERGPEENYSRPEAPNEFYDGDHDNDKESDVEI

With `C[Se]CCC(=O)C(=O)O` [KMSB, α-keto-γ-methylselenobutyrate] the Ki was ~30 µM.
